Article PMC8234273, “A Sesquiterpene Synthase from the Endophytic Fungus Serendipita indica Catalyzes Formation of Viridiflorol” (Biomolecules, 2021)

Molecular target: T1, SiTPS (Serendipita indica, UniProt G4TNA6)
T1 construct: gene PIIN_06735; full coding region from S. indica cDNA, C-terminal His-tag (pET28b+), E. coli C41, His SpinTrap purified and desalted
T1 sequence (G4TNA6 1-515): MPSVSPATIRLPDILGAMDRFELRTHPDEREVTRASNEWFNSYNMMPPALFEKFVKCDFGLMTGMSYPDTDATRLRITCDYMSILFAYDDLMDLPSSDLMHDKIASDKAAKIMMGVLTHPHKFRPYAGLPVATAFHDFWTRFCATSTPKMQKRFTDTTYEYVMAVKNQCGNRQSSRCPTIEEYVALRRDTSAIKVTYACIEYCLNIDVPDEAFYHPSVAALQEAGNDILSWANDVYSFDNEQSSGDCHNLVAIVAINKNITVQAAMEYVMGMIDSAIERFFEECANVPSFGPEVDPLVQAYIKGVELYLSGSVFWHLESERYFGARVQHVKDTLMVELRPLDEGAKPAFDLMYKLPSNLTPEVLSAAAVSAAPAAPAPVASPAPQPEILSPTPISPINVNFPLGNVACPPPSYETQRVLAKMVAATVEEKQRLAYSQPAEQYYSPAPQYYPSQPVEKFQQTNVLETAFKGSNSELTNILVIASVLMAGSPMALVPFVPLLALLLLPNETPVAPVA
Experiment: in vitro terpene synthase assay, GC-MS of hexane extract
Format: biochemical
Details: 10 mM MgCl2, 100 mM KCl, 5 mM DTT, 10% glycerol, 50 mM HEPES pH 7.2, 30 °C, 1 h

For `CC(C)=CCC/C(C)=C/CC/C(C)=C/COP(=O)(O)OP(=O)(O)O` [E,E-FPP], the “in vitro terpene synthase assay, GC-MS of hexane extract” value was “Hexane extracts showed activity only when SiTPS was incubated with E,E-FPP”.
